Reference: patent publication US6337316B1, “Pharmaceutical compositions thereof, and methods of using same” (Applied Research Systems ARS Holding N.V., priority 1997, dated 2002)
Entries after “also recorded” stand apart in the source; their conditions may differ. Peptide text beside a SMILES is read from it.

What was measured:
[1] = system: Th1-type cytokines and antigen specific T cells; conditions: delayed administration of the protein; cited from earlier work
[2] = target: T1, B7-1 (Homo sapiens, UniProt P33681); conditions: CTLA-4Ig vs CD28Ig, higher affinity; cited from earlier work
T1 sequence (P33681 35-288): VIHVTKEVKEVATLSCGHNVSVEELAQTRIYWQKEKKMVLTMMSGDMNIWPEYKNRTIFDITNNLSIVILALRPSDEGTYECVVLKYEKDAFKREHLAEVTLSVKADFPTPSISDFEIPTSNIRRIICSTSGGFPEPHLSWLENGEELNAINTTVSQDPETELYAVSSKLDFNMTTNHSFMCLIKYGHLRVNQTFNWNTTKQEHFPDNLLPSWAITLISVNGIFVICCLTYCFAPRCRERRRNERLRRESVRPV

[3] = system: murine MLR splenocyte proliferation; assay: One-way murine MLR (C57Bl/6 stimulators, BalB/c responders); format: cell-based, mouse; conditions: 10 μg/ml CTLA-4Ig; stated as similar to AT 199.3
Method: One-way murine MLRs were set up using the C57Bl/6 mice splenocytes as stimulators and BalB/c splenocytes as responders.
Spleens were excised from mice (Jackson Laboratories, Bar Harbor, Ma.) 6-8 weeks of age. Cells were separated from the capsule using sterile frosted glass slides and washed in cold RPMI 1640 1×. Red blood cells were lysed by treating the spleen cell suspension with cold Tris ammonium chloride buffer (2 ml/spleen) for 3 min on ice. After lysis, the cells were washed 2× in 5 volumes of complete medium (RPMI 1640 containing 10 % heat-inactivated FBS, 2 mM glutamine, 50 μM 2-mercaptoethanol, 100 U/ml penicillin-100 μg/ml strepcomycin, 1 mM sodium pyruvate and 1 mM non-essential amino acids).
Plastic-adherent cells were removed from splenocytes of BalB/c mice by adjusting the cell concentration to 3×10^6 cells/ml in complete medium and incubating the cells for 1.5-2 h at 37° C. in T-75 flasks. Following incubation non-adherent cells were collected by gently washing the flasks and the percent recovery determined (60-70%). Bal b/C responder cells were stored on ice until mitomycin C treatment of stimulator cells was completed.
Following RBC lysis splenocytes of C57Bl/6 mice were adjusted to 2-4×10^6 cells/ml in complete medium and treated with mitomycin C (50 μg/ml) for 30 min at 37° C. in a humidified 5% CO2 in air atmosphere. Following treatment, cells were washed with 5 volumes of complete medium 3×, and viable counts determined using trypan blue.
To set up autologous stimulation controls some responder cells were also treated with mitomycin C as mentioned above.
For the assay, responder and stimulator cells were plated at 10^5 cells/well in 96-well round bottom plates. […]
Appropriate scrambled peptide controls and matrix controls were included in every assay. […] Proliferation of the cells was determined by pulsing the wells with 3H-Tdr (1 μCi/well) For the last 6 h of the assay. Plates were harvested and the counts incorporated determined as described above.

[4] = system: PHA activated PBLs; assay: Mitogen (PHA) stimulation assay of PBL, 3H-Tdr incorporation; format: cell-based, human; conditions: for effect on PHA activation of PBLs / PHA stimulated T cells: in words
Method: For these assays, ficoll-hypaque purified PBMC (10^5 cells/well) were incubated in flat-bottom 96-well tissue culture plates with indicated concentrations or phytohemagglutinin (PHA; 5, 2.5, 1.25, 0.5 μg/ml) for 3 days at 37° C. in a humidified 5% CO2/air incubator. Cells were incubated in the presence or absence of various concentrations of CTLA-4 Ig, purified anti-CD80 mAb (1 μg/ml), anti-CD86 mAb (1 μg/ml), and peptides 199 and 201 serially diluted from 100 μM to 12.5 μM for the period of the assay.
Proliferation of the cells was determined by pulsing the wells with ^3H-Tdr (1 μCi/well) for the last 6 h of the assay. Plates were harvested using a Tomtec plate harvester and the counts incorporated determined using a Wallac microbetaplate plus reader.
AT 199 was tested for inhibition of PHA activated PBLs. PHA activation, while not specifically targeted at the CD28 pathway, has some dependence on this pathway depending on the concentration of PHA used to activate lymphocytes. To determine the […] of phytohemagglutinin (PHA) activation on CD28 signaling, CTLA-4Ig was included in each assay.
In order to test for an unanticipated mechanism of inhibition, AT 199 was assayed using PHA-stimulation of PBLs. Phytohemagglutinin (PHA) is a lectin extracted from the red kidney bean and is a mixture of five tetrameric glycoprotein. PHA stimulates T cells in the presence of accessory cells (but not B cells) by cross-linking a variety of critical T cell surface molecules, including CD3, CD2, CD4, CD8 and LFA-1 (Geppert, 1992). The involvement of CD28 in this stimulation is dependent on the degree of crosslinking by PHA. At the appropriate concentration of PHA, the simultaneous engagement of cell surface receptors results in a proliferation response that can bypass the need for specific costimulatory signals such as CD28. This can be monitored by examining CTLA-4Ig inhibition of PHA mitogenesis.

[5] = system: THP-1 cells; assay: Toxicity test on growing cell cultures; format: cell-based; conditions: 100 μM AT 199
Method: (§1) To determine if the activity of AT 199 was due to a specific effect on lymphocyte proliferation in the MLR or due to a non-specific inhibition of lymphocyte proliferation in general (i.e., toxicity), the toxicity of AT 199 was tested against THP-1, Jurkat, and resting and activated PBLs.
(§2) AT 199 and its control analogs were assayed for overt toxicity and non-specific inhibition. The peptides were added to growing cultures of THP-1 cells, Jurkat cells and primary peripheral blood lymphocytes (PBLs).

[6] = system: Jurkat cells; assay: Toxicity test on growing cell cultures; format: cell-based; conditions: 100 μM AT 199
Method: as §1, §2

[7] = system: binding of CTLA-4Ig to B7 on Cess B cells; assay: CTLA-4Ig/B7 binding assay on Cess B cells by FACS; conditions: FACS; assays of 3/24, 3/25, 4/5, 4/25; one symbol per assay
Method: +++ was assigned if the peptide tested gave >50% change in cpm in a dose dependent fashion. In addition to the MLR, these 34 peptides were also evaluated in a CTLA-4Ig/B7 binding assay in which the ability of these peptides to affect the binding of CTLA-4Ig to B7 on Cess B cells was examined by FACS analysis.
As with the MLR, a + or − was assigned to each peptide depending on its ability to effect CTLA-4Ig binding to Cess B cells; where − represents no change in binding, + represents a minor change of <10% in binding, and a ++ represents a change of >20% in binding.

[8] = system: primary peripheral blood lymphocytes (PBLs); assay: Toxicity test on growing cell cultures; format: cell-based, human; conditions: 100 μM AT 199
Method: as §1, §2

[9] = system: lymphocyte proliferation in the human MLR; format: cell-based
Method: Whole blood from donors was obtained from Interstate Blood Bank, Memphis, Tenn. Blood specimens were handled in a biosafety level 2 containment facility as recommended for potentially infectious blood specimens in the CDC/NIH manual Biosafety in Microbiological and Biomedical Laboratories; 3rd edition, 1993, page 10. Peripheral blood mononuclear cells (PBMC) were separated from red blood cells and granulocytes by ficoll-hypaque purification. Whole peripheral blood was diluted 1:2 in PBS and 30 ml was overlayed onto 15 ml of ficoll-hypaque in 50 ml polypropylene tubes. The tubes were spun at 400×g for 30 min at 25° C. Following centrifugation, the interface between the upper plasma layer and the lower ficoll layer was collected, cells washed in RPMI-1640 2×, and viable counts determined using trypan blue. Cells to be used as responders in the assay were stored on ice until mitomycin C treatment of stimulator cells was completed.
PBMC, isolated as described above, to be used as stimulators in the assay were adjusted to 2-4×10^6 cells/ml in complete medium (RPMI 1640 containing 10% heat-inactivated human AB serum, 2 mM glutamine, 50 μM 2-mercaptoethanol and 100 U/ml penicillin-100 μg/ml streptomycin), and treated with mitomycin C (25 μg/ml) for 30 min in a 37° C. water bath. Following treatment, cells were washed with S volumes of complete medium 3×, and viable counts determine using trypan blue. To set up autologous stimulation controls some responder cells were also treated with mitomycin C as mentioned above.
Purified CTLA-4Ig fusion protein was produced, as described in Steurer et al. 1995, from a NS-1 cell line kindly donated by Dr. T. Strom (Beth Israel Hospital, Boston, Mass.) as a 1 mg/ml solution in sterile PBS. The protein was stored frozen at −80° C. Upon thawing, the aliquot was stored at 4° C. Purified peptides were lyophilized according to known procedures. Peptides were reconstituted in sterile PBS, pH 7.4 at 2 mM concentration, aliquoted in microfuge cubes and stored frozen at −20° C. For the assay, an aliquot of the peptide was thawed and diluted to 200 μM in complete medium.
For the one-way allogeneic mixed lymphocyte response (MLR) assay, responder cells were plated at 10^6 cells/well, and stimulator cells at 5×10^4 cells/well in 96-well round bottom plates. Cells were incubated with serial dilutions of the anti-CD4 Ab Leu 3A (1 μg/ml-0.06 μg/ml) in triplicate, or an isotype-matched control Ab. Cyclosporin A at 1 μg/ml was used as an additional control.
CTLA-4 Ig was serially diluted an.4 tested from 10 μg/ml to 0.15 μg/ml. Peptides were tested either directly or in the presence of a constant spiked-in dose of CTLA-4 Ig at 0.5 μg/ml. The plates were incubated at 37° C. in a humidified 5% CO2 atmosphere for 7 days.
Proliferation of the cells was determined by pulsing the wells with ^3H-Tdr (1 μCi/well) for the last 18 h of the assay. Plates were harvested using a Tomtec -late harvester and the counts incorporated determined using a Wallac microbetaplate plus reader.
A total of 34 peptides were tested for inhibition of lymphocyte proliferation in the human MLR. Each peptide was tested in a MLR at doses ranging from 12.5 to 100 μM. The activity of each peptide was identified by assigning a + and − tone peptide depending on its ability to inhibit lymphocyte proliferation in the MLR (cpms).

Molecule: CTLA-4Ig: Purified CTLA-4Ig fusion protein (murine) produced from a NS-1 cell line as in Steurer et al. 1995
- blunted expansion of antigen specific T cells [1]: 50%
- reduction in Th1-type cytokines [1]: 80-90%
- affinity for B7-1 relative to CD28Ig [2]: 20-100 fold
- inhibition of the murine MLR [3]: ~85%
- inhibition of PHA activation ([4]; 10 μg/ml CTLA-4Ig, PHA 2.5 and 5 μg/ml (FIG. 11)): 40-50%
- effect on PHA activation of PBLs / PHA stimulated T cells [4]: inhibited PHA activation slightly

Molecule: CSCC[C@@H]1NC(=O)[C@H](CC(C)C)NC(=O)[C@@H](NC(=O)[C@H](CCCCN)NC(=O)[C@@H](N)CCCNC(=N)N)CSSC[C@@H](C(=O)N[C@@H](Cc2c[nH]cn2)C(=O)N[C@@H](Cc2c[nH]cn2)C(N)=O)NC(=O)[C@H](Cc2ccc(O)cc2)NC(=O)[C@H](Cc2ccc(O)cc2)NC(=O)[C@@H]2CCCN2C(=O)[C@@H]2CCCN2C(=O)[C@@H]2CCCN2C(=O)[C@H](Cc2ccc(O)cc2)NC1=O [AT 199.1, RKCLMYPPPYYCHH] (HELM PEPTIDE1{R.K.C.L.M.Y.P.P.P.Y.Y.C.H.H.[am]}$PEPTIDE1,PEPTIDE1,3:R3-12:R3$$$V2.0; N-terminus assumed)
- inhibition / effect on growth of THP-1 cells [5]: no inhibition; also recorded: No effect
- inhibition / effect on growth of Jurkat cells [6]: no inhibition; also recorded: No effect
- effect on PHA activation of PBLs / PHA stimulated T cells [4]: only a minor effect; also recorded: did not inhibit
- Binding Assay (effect on CTLA-4Ig binding to Cess B cells) [7]: +, +, +
- inhibition / effect on growth of resting primary PBLs [8]: no inhibition; also recorded: No effect
- IC50 [9]: 50 to 100 µM
- Human MLR (ability to inhibit lymphocyte proliferation, cpm) ([9]; peptide 12.5 to 100 μM, assays of 1/24, 1/31, 3/6, 4/17, 5/2, one symbol per assay): +, +, +
- human MLR assays in which the peptide was active ([9]; total of 6 human MLR assays): 5 out of 6
